Measurements published in patent US20260207519A1, “ISOLATED TARGETED DELIVERY SYSTEM FOR THE TREATMENT OF OVARIAN CANCER” (CELLIS SP. Z O.O. [LTD.], priority 2022, published 2026).

System: A2780_luc tumors
Experiment: 3rd in vivo study: A2780_luc orthotopic xenograft model
Parameters: species or system female Balb/c nude mice
Conditions: vehicle 13 days; Kaplan-Meier, log-rank test
Description: FIG. 14: The Kaplan-Meier survival curve of female nude mice implanted […] with A2780_luc tumors. N=8 for both groups initially. Statistical analysis was carried out using log-rank (Mantel-Cox) test.
All in vivo studies were performed using female Balb/c nude mice at age 5-8 weeks. Animals were imaged using an In Vivo Imaging System (IVIS, Newton 7.0, Vilber).
A2780_luc or A2780-cis_luc cells were orthotopically implanted into both ovaries of mice. 5 days after implant mice were imaged using IVIS and those with most similar bioluminescent intensity values were assigned to the following treatment groups: […]

`N.N.[Cl][Pt][Cl]` [cisplatin, Cisplatin] was tested, and the median survival was 14.5 days.
